Where two headings read alike, the source gives them in different places.
Experiments:
P-gp = molecular target: T1, P-gp (Homo sapiens, UniProt P08183); test: Vesicular transport assay, 3H-NMQ uptake in P-gp membrane vesicles; type: biochemical; settings: for % Uptake of 3H-NMQ P-gp: antioxidant 200 µM, uptake with DMSO set as 100%, mean ± SD, three replicates, membrane vesicles
T1 construct: purchased ThermoFisher Scientific GM0015; host or cells: Sf9 membrane vesicles
Description: (§1) The vesicular transport assay was performed using Spodoptera frugiperda 9 (Sf9) membrane vesicles overexpressing human P-gp or BCRP, as reported previously with minor modifications. In brief, Isoplate 96-well flat-bottom white plates were preincubated with HBSS containing 0.5 mg/mL BSA on an orbital shaker in a 37 °C incubator at 90 rpm for 60 min followed by washing with HBSS. The assay mixture (75 µL/well) contained a probe substrate and either vehicle control, a known inhibitor of P-gp or BCRP, or an antioxidant, in vesicle uptake buffer (50 mM MOPS-Tris, pH 7.0 + 70 mM KCl + 7.5 mM MgCl2) prewarmed to 37 °C. After addition of the assay mixture, 5 μL/well (5 μg/μL stock concentration of the vesicles) of vesicles overexpressing human P-gp or BCRP was added. Uptake assays were initiated by adding 20 μL of either 25 mM adenosine triphosphate (ATP) or 25 mM adenosine monophosphate (AMP) to a final concentration of 5 mM. Plates were incubated at 37 °C for 20 min with orbital shaking (90 rpm). After 20 min, the uptake was quenched by adding 150 μL of ice-cold wash buffer (40 mM MOPS-Tris, pH 7.0 + 70 mM KCl) to each well, and the mixture was transferred to a 96-well filtration plate. Vacuum was applied, and the vesicles were washed three times with wash buffer. Vesicles were then lysed with 100 µL of MicroScint-20.

[1] = Table S1; source not stated; cited from earlier work
BCRP = molecular target: T2, BCRP (Homo sapiens, UniProt Q9UNQ0); test: Vesicular transport assay, 3H-CCK8 uptake in BCRP membrane vesicles; type: biochemical; set-up: purchased ThermoFisher Scientific GM0008; host or cells: Sf9 membrane vesicles; settings: for % Uptake of 3H-CCK8 BCRP: antioxidant 200 µM, uptake with DMSO set as 100%, mean ± SD, three replicates, membrane vesicles
T2 sequence (Q9UNQ0 1-655): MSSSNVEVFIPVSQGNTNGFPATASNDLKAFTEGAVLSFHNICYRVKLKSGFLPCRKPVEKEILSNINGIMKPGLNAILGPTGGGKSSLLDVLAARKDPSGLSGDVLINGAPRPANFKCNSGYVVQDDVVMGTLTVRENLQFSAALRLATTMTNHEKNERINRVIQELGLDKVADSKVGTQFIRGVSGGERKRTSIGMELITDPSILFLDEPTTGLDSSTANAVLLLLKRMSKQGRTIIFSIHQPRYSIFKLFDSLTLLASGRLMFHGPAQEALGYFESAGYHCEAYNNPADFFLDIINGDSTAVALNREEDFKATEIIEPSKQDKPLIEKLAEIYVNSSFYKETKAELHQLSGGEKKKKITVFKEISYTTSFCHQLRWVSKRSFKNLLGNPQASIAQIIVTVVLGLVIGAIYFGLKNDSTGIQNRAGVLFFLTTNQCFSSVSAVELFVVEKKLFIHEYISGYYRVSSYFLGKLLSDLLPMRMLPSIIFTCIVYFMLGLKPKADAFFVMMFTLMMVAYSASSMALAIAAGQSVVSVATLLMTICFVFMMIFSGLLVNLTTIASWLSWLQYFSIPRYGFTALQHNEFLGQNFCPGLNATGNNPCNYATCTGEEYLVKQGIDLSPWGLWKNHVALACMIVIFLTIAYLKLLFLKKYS
Description: as §1

OATP2B1 = molecular target: T3, OATP2B1 (Homo sapiens, UniProt O94956); test: Uptake transporter assay, 3H-estrone sulfate uptake in HEK-293-OATP2B1 cells
T3 sequence (O94956 1-709): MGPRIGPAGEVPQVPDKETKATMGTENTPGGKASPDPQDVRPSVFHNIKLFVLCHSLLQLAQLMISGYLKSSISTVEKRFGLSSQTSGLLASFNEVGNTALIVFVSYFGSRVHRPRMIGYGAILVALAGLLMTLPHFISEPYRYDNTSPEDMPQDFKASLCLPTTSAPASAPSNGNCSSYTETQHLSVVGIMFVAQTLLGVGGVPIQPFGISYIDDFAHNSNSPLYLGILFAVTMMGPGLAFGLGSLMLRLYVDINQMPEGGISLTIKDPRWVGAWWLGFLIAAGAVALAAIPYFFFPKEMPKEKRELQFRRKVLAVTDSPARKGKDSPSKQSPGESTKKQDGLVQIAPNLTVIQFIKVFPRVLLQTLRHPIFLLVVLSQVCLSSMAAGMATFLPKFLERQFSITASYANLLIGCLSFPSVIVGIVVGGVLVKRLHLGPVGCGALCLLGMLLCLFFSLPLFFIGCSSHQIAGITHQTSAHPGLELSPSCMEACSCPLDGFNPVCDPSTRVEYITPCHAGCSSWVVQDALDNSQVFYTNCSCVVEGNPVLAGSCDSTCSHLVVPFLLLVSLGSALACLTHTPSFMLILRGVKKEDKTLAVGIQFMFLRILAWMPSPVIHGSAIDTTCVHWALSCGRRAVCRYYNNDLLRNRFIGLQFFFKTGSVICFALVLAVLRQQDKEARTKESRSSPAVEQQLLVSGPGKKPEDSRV
Description: The uptake transporter assay was performed as reported previously with minor modifications [15]. A day before the uptake assay, Isoplate 96-well plates were coated with poly-D-lysine in PBS with calcium and magnesium and washed with PBS. […] An assay mixture of ^3H-estrone sulfate, a known inhibitor of OATP2B1, or an antioxidant was prepared and incubated in a 37 °C incubator for 10 min. The cells were washed with ice-cold HBSS three times and incubated with MicroScint fluid on a shaker for 1 h for cell lysis. Radioactivity was measured by liquid scintillation counting with a MicroBeta^2® microplate counter. […] On the day of experiment, cells were washed twice with 0.4 mL of HBSS per well and then pre-incubated for 10–20 min in 0.4 mL of HBSS. […] Uptake of ^3H-valsartan was stopped after 15 min by washing three times with ice-cold HBSS. Cells were lysed in 750 µL of lysis buffer (0.1 N NaOH and 0.1% SDS in double-distilled water) per well while shaking for 60 min. A total of 690 µL of the lysate from each well was then added to 2.5 mL of EcoLite scintillation fluid. The radioactivity was determined on a LS6500 Scintillation Counter (Beckman Coulter). Protein concentration was measured with a Pierce™ BCA protein assay kit. The radioactivity in each well was corrected for protein concentration. All values were determined in triplicate, and the final values are expressed as % uptake relative to negative control (1% DMSO).
Antioxidants were screened at a concentration of 200 μM.

OATP2B1, P-gp, and BCRP = settings: cited from earlier work
[2] = antioxidant 200 µM, uptake with DMSO set as 100%, mean ± SD, three replicates, HEK-293-OATP2B1 cells

T1 sequence (P08183 whole entry): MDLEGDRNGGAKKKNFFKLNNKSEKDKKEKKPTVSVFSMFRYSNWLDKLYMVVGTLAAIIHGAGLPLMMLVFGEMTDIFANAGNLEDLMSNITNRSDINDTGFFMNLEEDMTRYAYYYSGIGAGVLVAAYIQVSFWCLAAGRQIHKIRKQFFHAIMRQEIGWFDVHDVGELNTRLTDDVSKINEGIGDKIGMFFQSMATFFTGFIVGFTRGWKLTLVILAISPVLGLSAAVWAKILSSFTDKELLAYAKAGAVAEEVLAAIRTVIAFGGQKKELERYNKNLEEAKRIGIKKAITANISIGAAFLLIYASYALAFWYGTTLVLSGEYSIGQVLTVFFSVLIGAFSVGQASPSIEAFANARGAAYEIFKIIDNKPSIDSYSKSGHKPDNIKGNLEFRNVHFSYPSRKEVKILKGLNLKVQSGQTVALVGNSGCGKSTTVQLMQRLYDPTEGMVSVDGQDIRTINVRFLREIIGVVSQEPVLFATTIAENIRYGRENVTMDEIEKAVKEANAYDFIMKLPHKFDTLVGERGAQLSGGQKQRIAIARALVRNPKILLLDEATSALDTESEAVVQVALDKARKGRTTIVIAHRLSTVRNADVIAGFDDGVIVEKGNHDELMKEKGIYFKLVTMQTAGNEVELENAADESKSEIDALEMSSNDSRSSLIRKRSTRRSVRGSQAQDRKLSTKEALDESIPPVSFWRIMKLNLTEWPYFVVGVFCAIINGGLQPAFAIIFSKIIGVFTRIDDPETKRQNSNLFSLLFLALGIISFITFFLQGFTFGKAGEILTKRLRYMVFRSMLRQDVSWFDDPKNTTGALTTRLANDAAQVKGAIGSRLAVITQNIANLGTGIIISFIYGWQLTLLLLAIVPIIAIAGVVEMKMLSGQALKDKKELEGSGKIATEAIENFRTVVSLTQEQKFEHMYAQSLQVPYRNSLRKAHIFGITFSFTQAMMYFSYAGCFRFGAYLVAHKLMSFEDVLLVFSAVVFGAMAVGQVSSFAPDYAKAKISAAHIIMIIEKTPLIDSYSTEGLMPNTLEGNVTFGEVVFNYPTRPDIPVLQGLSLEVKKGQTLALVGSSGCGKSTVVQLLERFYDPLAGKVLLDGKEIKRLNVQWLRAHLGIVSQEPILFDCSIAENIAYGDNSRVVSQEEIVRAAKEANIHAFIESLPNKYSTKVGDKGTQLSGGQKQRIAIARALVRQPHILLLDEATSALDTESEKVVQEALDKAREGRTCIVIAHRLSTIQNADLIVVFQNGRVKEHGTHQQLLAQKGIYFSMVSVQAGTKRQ

Uptake of 3H-ES in HEK-293 cells expressing OATP2B1 (assay validation) (OATP2B1; erlotinib 20 µM, 37 °C, 10 min)	% Uptake of 3H-ES OATP2B1 (OATP2B1) [%]	Molecule	% Uptake of 3H-NMQ P-gp (P-gp) [%]	LogP [1]	% Uptake of 3H-CCK8 BCRP (BCRP) [%]	% Uptake of 3H-ES OATP2B1 (OATP2B1; [2]) [%]	Uptake of 3H-CCK8 in BCRP membrane vesicles (assay validation) (BCRP; BSP 200 µM with 5 mM ATP, 37 °C, 20 min)	inhibition at 20 min, 200 µM (P-gp; human, Sf9 membrane vesicles overexpressing human P-gp, pH 7, probe 3H-NMQ, 200 µM, 3H-NMQ) [%]	Inhibition of intestinal transporters, previous assessment (OATP2B1, P-gp, and BCRP)
–	–	O=S([O-])[O-].[Na+].[Na+] [Sodium sulfite]	77.7 ± 33.7	-4	99.7 ± 5.5	92.9 ± 4.5	–	–	–
–	–	O=C([O-])CN(CCN(CC(=O)[O-])CC(=O)O)CC(=O)O.[Na+].[Na+] [EDTA (edetate disodium), edetate disodium]	69.3 ± 20.5	–	110.4 ± 24.6	–	–	–	–
–	–	NCCC(=O)N[C@@H](Cc1cnc[nH]1)C(=O)O [Carnosine]	82.6 ± 44	-4	99.7 ± 11.6	119.3 ± 27.6	–	–	–
–	–	O=S(O)S(=O)(=O)O [Sodium metabisulfite]	78.8 ± 17.5	-3.7	94.5 ± 8.2	118.9 ± 31.7	–	–	–
–	–	Cl.N[C@@H](CS)C(=O)O [Cysteine hydrochloride]	–	–	90.0 ± 12.5	–	–	–	–
–	–	CCCOC(=O)c1cc(O)c(O)c(O)c1 [Propyl gallate]	149.1 ± 67.6	–	86.5 ± 2.6	79.3 ± 17.2	–	–	–
–	–	N[C@@H](CCC(=O)N[C@@H](CS)C(=O)NCC(=O)O)C(=O)O [Glutathione]	79.8 ± 15.8	–	95.9 ± 2.2	107.9 ± 7.8	–	–	–
–	–	Cc1cc(C(C)(C)C)c(O)c(C(C)(C)C)c1 [Butylated hydroxytoluene (BH), Butylated hydroxytoluene]	98.1 ± 20.3	–	102.8 ± 9.2	137.1 ± 34.8	–	–	–
–	–	COC1=C(OC)C(=O)C(C/C=C(\C)CC/C=C(\C)CC/C=C(\C)CC/C=C(\C)CC/C=C(\C)CC/C=C(\C)CC/C=C(\C)CC/C=C(\C)CC/C=C(\C)CCC=C(C)C)=C(C)C1=O [Co-enzyme Q-10]	90.3 ± 16.3	10	82.7 ± 16.2	116.1 ± 16.0	–	–	–
–	–	O=S([O-])O.[Na+] [Sodium bisulfite]	96.1 ± 30.4	-1.2	110.4 ± 9.3	90.1 ± 24.5	–	–	–
–	–	COc1cc(/C=C/C(=O)O)ccc1O [Ferulic acid]	100.4 ± 16.6	–	91.0 ± 4.7	136.4 ± 20.7	–	–	–
–	–	NCC(=O)O [Glycine]	–	–	–	125.6 ± 23.0	–	–	–
–	–	O=C1OC(c2ccc(O)c(S(=O)(=O)O)c2)(c2ccc(O)c(S(=O)(=O)O)c2)c2c(Br)c(Br)c(Br)c(Br)c21 [Bromosulfophthalein, reference compound]	0.0 ± 22	–	0.3 ± 1.2	10.9 ± 8.1	significantly reduced the uptake	–	–
–	–	O=C1O[C@H]([C@H](O)CO)C(O)=C1O [Erythorbic acid]	81.8 ± 31.4	-1.88	88.2 ± 7.5	–	–	–	–
–	–	COc1cc(/C=C/C(=O)CC(=O)/C=C/c2ccc(O)c(OC)c2)ccc1O [Curcumin, reference compound]	0.0 ± 2.8	–	0.0 ± 1.8	–	–	–	–
–	–	Oc1ccc2c(c1)OCO2 [Sesamol]	121.3 ± 35.1	1.57	90.3 ± 3.7	103.1 ± 7.2	–	–	–
–	–	O=C(O)CC(O)(CC(=O)O)C(=O)O [Anhydrous citric acid]	92 ± 2.1	–	93.1 ± 6.7	–	–	–	–
–	–	C/C=C/C=C/C(=O)[O-].[K+] [Potassium sorbate]	103.5 ± 28.7	–	104.8 ± 14.5	98.8 ± 19.8	–	–	–
–	–	N[C@@H](Cc1c[nH]cn1)C(=O)O [Histidine]	87.6 ± 10.6	-3.32	92.4 ± 1.6	108.9 ± 4.0	–	–	–
significantly inhibited	–	C#Cc1cccc(Nc2ncnc3cc(OCCOC)c(OCCOC)cc23)c1 [Erlotinib, reference compound]	63 ± 5	–	58.5 ± 3.9	–	–	–	–
–	–	C[N+](C)(C)[C@@H](Cc1c[nH]c(=S)[nH]1)C(=O)[O-] [Ergothioneine]	58.2 ± 23.6	0.3	112.5 ± 11.2	118.2 ± 30.6	–	–	–
–	–	NCCCC[C@H](N)C(=O)O [Lysine]	32.5 ± 44.3	-3.05	109.0 ± 20.8	120.3 ± 21.4	–	≥ 50	–
–	101.1 ± 5.8	O=C(O)C(O)C(O)C(=O)O (stereo not drawn) [Tartaric acid]	–	-0.76	–	–	–	–	–
–	–	O=C(O)/C=C/c1ccc(O)c(O)c1 [Caffeic acid]	133.8 ± 12	–	75.8 ± 3.7	119.8 ± 19.8	–	–	–
–	–	O.O.O.O.O.O=S([O-])([O-])=S.[Na+].[Na+] [Sodium thiosulfate, pentahydrate]	77.4 ± 20	0.048	114.2 ± 22.8	104.4 ± 2.4	–	–	found not to inhibit these transporters
–	–	Vitamin E	67.9 ± 24	–	81.0 ± 12.6	83.5 ± 20.9	–	–	found not to inhibit these transporters
–	–	O=P(O)(O)O [Phosphoric acid]	–	–	83.0 ± 18.0	–	–	–	–
–	–	O=C1O[C@H]([C@@H](O)CO)C(O)=C1O [Ascorbic acid]	113.6 ± 43.3	-1.85	92.7 ± 5.9	–	–	–	–
–	–	O=C(O)c1ccc(O)c(O)c1 [3,4-dihydroxybenzoid acid, 3,4-dihydroxybenzoic acid]	118.9 ± 20	0.86	78.5 ± 6.9	85.4 ± 4.4	–	–	–
–	–	CSCC[C@H](N)C(=O)O [Methionine]	86.7 ± 24.5	-1.87	94.8 ± 9.4	113.2 ± 15.2	–	–	–
